Measured values: the SangsterLogP compilation

First: CCC(=O)C(CCN(C)C)(c1ccccc1)C1CCCC1 (stereo not drawn)
Second: CCC(=O)C(CCN(C)C)(c1ccccc1)C1CCCCC1 (stereo not drawn)
The logP of the first is lower: 4.53 for the first, 5.13 for the second.

Compared with CCC(=O)C(CCN(C)C)(c1ccccc1)C1CCCCCC1 (stereo not drawn), CCC(=O)C(CCN(C)C)(c1ccccc1)c1ccc(C)cc1 (stereo not drawn) is lower in logP: 5.91 for the first, 4.93 for the second.

First: CCC(=O)C(CCN(C)C)(c1ccccc1)c1ccc(O)cc1 (stereo not drawn)
Second: CCC(=O)C(CCN(C)C)(c1ccccc1)c1ccc(Cl)cc1 (stereo not drawn)
The logP of the first is lower: 3.45 for the first, 4.9 for the second.

CCC(=O)C(CCN(C)C)(c1ccccc1)c1ccccc1 and CCC(=O)C(CCN(C)C)(c1ccccc1)c1cccc(F)c1 (stereo not drawn) are within 0.2 log units of each other in logP: 4.15 for the first, 4.17 for the second.

First: CCC(=O)C(CCN(C)C)(c1ccccc1)c1ccc(F)cc1 (stereo not drawn)
Second: CCC(=O)C(CCN(C)C)(c1ccccc1)c1ccc(Br)cc1 (stereo not drawn)
The logP of the first is lower: 4.19 for the first, 5.23 for the second.

CCC(=O)C(CCN(C)C)(c1ccc(F)cc1)c1ccc(F)cc1 and CCC(=O)C(CCN(C)C)(c1ccccc1)c1ccc(SC)cc1 (stereo not drawn) are within 0.2 log units of each other in logP: 4.84 for the first, 4.96 for the second.

In the case of CCC(=O)C(CCN(C)C)(c1ccccc1)c1ccc(OC)cc1 (stereo not drawn), the logP is reported as 4.28.
